≈ marks a conversion by molar mass, not a printed value.
Experiments:
[1] = system: MRSA KS1; test: MIC, broth microdilution, MRSA KS1; assay type: cell-based, Staphylococcus aureus; conditions: for MIC-fold improvement vs. vancomycin: MRSA KS1, ratio of MIC of vancomycin and MIC of analogue; for MIC: Staphylococcus aureus MRSA KS1, read-out: MIC
Summary of the method: (§1)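 Inhibitory concentrations were read by the CLSI broth microdilution procedure, with water and sterile broth as controls. One experiment added vancomycin (10 μM final) together with each analogue or reference antibiotic.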

[2] = system: MRSA KS6; test: MIC, broth microdilution, MRSA KS6; assay type: cell-based, Staphylococcus aureus; conditions: for MIC-fold improvement vs. vancomycin: MRSA KS6, ratio of MIC of vancomycin and MIC of analogue; for MIC: Staphylococcus aureus MRSA KS6, read-out: MIC
Summary of the method: as §1

[3] = system: E. faecalis VRE 53; test: MIC, broth microdilution, vancomycin-resistant E. faecalis VRE 53 (VanA); assay type: cell-based, Enterococcus faecalis; conditions: for MIC: Enterococcus faecalis VRE 53 (vancomycin-resistant), read-out: MIC; for MIC-fold improvement vs. vancomycin: VRE 53, ratio of MIC of vancomycin and MIC of analogue
Summary of the method: as §1

[4] = system: E. faecalis VSE 1; test: MIC, broth microdilution, vancomycin-sensitive E. faecalis (VSE 1); assay type: cell-based, Enterococcus faecalis; conditions: for MIC: Enterococcus faecalis VSE 1 (vancomycin-sensitive), read-out: MIC; for MIC-fold improvement vs. vancomycin: VSE 1, ratio of MIC of vancomycin and MIC of analogue
Summary of the method: as §1

[5] = system: E. faecalis VRE 37; test: MIC, broth microdilution, vancomycin-resistant E. faecalis VRE 37 (VanA); assay type: cell-based, Enterococcus faecalis; conditions: for MIC: Enterococcus faecalis VRE 37 (vancomycin-resistant), read-out: MIC; for MIC-fold improvement vs. vancomycin: VRE 37, ratio of MIC of vancomycin and MIC of analogue
Summary of the method: as §1

[6] = system: E. faecalis VRE 6; test: MIC, broth microdilution, vancomycin-resistant E. faecalis VRE 6 (VanA); assay type: cell-based, Enterococcus faecalis; conditions: for MIC: Enterococcus faecalis VRE 6 (vancomycin-resistant), read-out: MIC; for MIC-fold improvement vs. vancomycin: VRE 6, ratio of MIC of vancomycin and MIC of analogue
Summary of the method: as §1

[7] = system: human cervix carcinoma (HeLa) cells; test: Cytostatic activity, HeLa cell proliferation; assay type: cell-based; conditions: mean ± SD of three experiments; highest concentration tested 250 µM; 4 days; read-out: Toxicity (IC50) HeLa
Summary of the method: (§2)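 Coulter counter cell counts after 37°C culture with compound; IC50 = concentration giving 50% growth inhibition vs negative control. Incubation: L1210 2 d, CEM 3 d, HeLa 4 d. Suspension density before mixing with an equal volume of dilution: 300,000–500,000 cells/mL.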

[8] = system: S. aureus VISA/HIP5827; test: MIC, broth microdilution, vancomycin-intermediate S. aureus VISA HIP5827; assay type: cell-based, Staphylococcus aureus; conditions: for MIC: Staphylococcus aureus VISA/HIP5827, read-out: MIC; for MIC-fold improvement vs. vancomycin: VISA/HIP5827, ratio of MIC of vancomycin and MIC of analogue
Summary of the method: as §1

[9] = system: MRSA KS2; test: MIC, broth microdilution, MRSA KS2; assay type: cell-based, Staphylococcus aureus; conditions: for MIC-fold improvement vs. vancomycin: MRSA KS2, ratio of MIC of vancomycin and MIC of analogue; for MIC: Staphylococcus aureus MRSA KS2, read-out: MIC
Summary of the method: as §1

[10] = system: S. aureus VRSA; test: MIC, broth microdilution, vancomycin-resistant S. aureus (VRSA); assay type: cell-based, Staphylococcus aureus; conditions: for MIC: Staphylococcus aureus VRSA, read-out: MIC; for MIC-fold improvement vs. vancomycin: VRSA, ratio of MIC of vancomycin and MIC of analogue
Summary of the method: as §1

[11] = system: human T-lymphocyte (CEM) cells; test: Cytostatic activity, CEM cell proliferation; assay type: cell-based; conditions: mean ± SD of three experiments; highest concentration tested 250 µM; 3 days; read-out: Toxicity (IC50) CEM
Summary of the method: as §2

[12] = system: L1210, CEM and HeLa cell lines; test: Cytostatic activity, average or summary over L1210, CEM and HeLa; assay type: cell-based; conditions: average of L1210, CEM and HeLa; read-out: Toxicity (IC50) Average
Summary of the method: as §2

[13] = system: E. faecalis VRE 29; test: MIC, broth microdilution, vancomycin-resistant E. faecalis VRE 29 (VanA); assay type: cell-based, Enterococcus faecalis; conditions: for MIC: Enterococcus faecalis VRE 29 (vancomycin-resistant), read-out: MIC; for MIC-fold improvement vs. vancomycin: VRE 29, ratio of MIC of vancomycin and MIC of analogue
Summary of the method: as §1

[14] = system: MRSA KS89; test: MIC, broth microdilution, MRSA KS89; assay type: cell-based, Staphylococcus aureus; conditions: for MIC-fold improvement vs. vancomycin: MRSA KS8, ratio of MIC of vancomycin and MIC of analogue; for MIC: Staphylococcus aureus MRSA KS8, read-out: MIC
Summary of the method: as §1

[15] = system: S. aureus VSSA (ATCC 6538); test: MIC, broth microdilution, vancomycin-sensitive S. aureus (VSSA/MSSA, ATCC 6538); assay type: cell-based, Staphylococcus aureus; conditions: for MIC: Staphylococcus aureus VSSA, read-out: MIC; for MIC-fold improvement vs. vancomycin: VSSA, ratio of MIC of vancomycin and MIC of analogue
Summary of the method: as §1

[16] = system: Murine leukemia (L1210) cells; test: Cytostatic activity, L1210 cell proliferation; assay type: cell-based; conditions: mean ± SD of three experiments; highest concentration tested 250 µM; 2 days; read-out: Toxicity (IC50) L1210
Summary of the method: as §2

Row | MIC-fold improvement vs. vancomycin [1] | MIC [1] | MIC-fold improvement vs. vancomycin [2] | MIC [2] | MIC [3] | MIC-fold improvement vs. vancomycin [3] | MIC [4] | MIC-fold improvement vs. vancomycin [4] | MIC [5] | MIC-fold improvement vs. vancomycin [5] | MIC [6] | MIC-fold improvement vs. vancomycin [6] | MIC [8] | MIC-fold improvement vs. vancomycin [8] | MIC-fold improvement vs. vancomycin [9] | MIC [9] | MIC [10] | MIC-fold improvement vs. vancomycin [10] | SMILES | IC50 [7] | IC50 [11] | other results
1 | 1 | 0.78 µM (≈ 1.25 µg/mL) | 1 | 0.78 µM (≈ 1.25 µg/mL) | 25 µM (≈ 39.9 µg/mL) | 16 | 0.78 µM (≈ 1.25 µg/mL) | 2 | 50 µM (≈ 79.9 µg/mL) | 16 | 25 µM (≈ 39.9 µg/mL) | 8 | 0.78 µM (≈ 1.25 µg/mL) | 8 | 1 | 0.78 µM (≈ 1.25 µg/mL) | 25 µM (≈ 39.9 µg/mL) | 4 | CNC(CC(C)C)C(=O)NC1C(=O)NC(CC(N)=O)C(=O)NC2C(=O)NC3C(=O)NC(C(=O)NC(C(=O)NCC(=O)Nc4ccc(O)cc4)c4cc(O)cc(O)c4-c4cc3ccc4O)C(O)c3ccc(c(Cl)c3)Oc3cc2cc(c3OC2OC(CO)C(O)C(O)C2OC2CC(C)(N)C(O)C(C)O2)Oc2ccc(cc2Cl)C1O (stereo not drawn) [Vanc-1] | 72 ± 10 µM | > 250 µM | IC50 [12]: 191 µM; MIC [13]: >50 µM; MIC-fold improvement vs. vancomycin [13]: <8; MIC-fold improvement vs. vancomycin [14]: 1; MIC [14]: 0.78 µM (≈ 1.25 µg/mL); MIC [15]: 0.78 µM (≈ 1.25 µg/mL); MIC-fold improvement vs. vancomycin [15]: 1; IC50 [16]: > 250 µM
2 | 4 | 0.20 µM (≈ 0.333 µg/mL) | 2 | 0.39 µM (≈ 0.65 µg/mL) | 3.13 µM (≈ 5.21 µg/mL) | 128 | 0.78 µM (≈ 1.3 µg/mL) | 2 | 3.13 µM (≈ 5.21 µg/mL) | 128 | 3.13 µM (≈ 5.21 µg/mL) | 64 | 0.78 µM (≈ 1.3 µg/mL) | 8 | 4 | 0.20 µM (≈ 0.333 µg/mL) | 1.56 µM (≈ 2.6 µg/mL) | 64 | CCCCCCc1ccc(NC(=O)CNC(=O)[C@H]2NC(=O)[C@H]3NC(=O)[C@H](NC(=O)[C@@H]4NC(=O)[C@H](CC(N)=O)NC(=O)[C@H](NC(=O)[C@@H](CC(C)C)NC)[C@H](O)c5ccc(c(Cl)c5)Oc5cc4cc(c5O[C@@H]4O[C@H](CO)[C@@H](O)[C@H](O)[C@H]4O[C@H]4C[C@](C)(N)[C@H](O)[C@H](C)O4)Oc4ccc(cc4Cl)[C@H]3O)c3ccc(O)c(c3)-c3c(O)cc(O)cc32)cc1 [Vanc-75] | 83 ± 4 µM | 15 ± 3 µM | IC50 [12]: 38 µM; MIC [13]: 3.13 µM (≈ 5.21 µg/mL); MIC-fold improvement vs. vancomycin [13]: 128; MIC-fold improvement vs. vancomycin [14]: 4; MIC [14]: 0.20 µM (≈ 0.333 µg/mL); MIC [15]: 0.78 µM (≈ 1.3 µg/mL); MIC-fold improvement vs. vancomycin [15]: 1; IC50 [16]: 17 ± 7 µM
3 | 2 | 0.39 µM (≈ 0.643 µg/mL) | 1 | 0.78 µM (≈ 1.29 µg/mL) | 25 µM (≈ 41.2 µg/mL) | 16 | 0.78 µM (≈ 1.29 µg/mL) | 2 | 50 µM (≈ 82.5 µg/mL) | 8 | 25 µM (≈ 41.2 µg/mL) | 8 | 0.78 µM (≈ 1.29 µg/mL) | 8 | 2 | 0.39 µM (≈ 0.643 µg/mL) | 1.56 µM (≈ 2.57 µg/mL) | 64 | CNC(CC(C)C)C(=O)NC1C(=O)NC(CC(N)=O)C(=O)NC2C(=O)NC3C(=O)NC(C(=O)NC(C(=O)NCCCNC(=O)c4nc5ccccc5[nH]4)c4cc(O)cc(O)c4-c4cc3ccc4O)C(O)c3ccc(c(Cl)c3)Oc3cc2cc(c3OC2OC(CO)C(O)C(O)C2OC2CC(C)(N)C(O)C(C)O2)Oc2ccc(cc2Cl)C1O (stereo not drawn) [Vanc-52] | 104 ± 13 µM | > 250 µM | IC50 [12]: 201 µM; MIC [13]: 50 µM (≈ 82.5 µg/mL); MIC-fold improvement vs. vancomycin [13]: 8; MIC-fold improvement vs. vancomycin [14]: 1; MIC [14]: 0.78 µM (≈ 1.29 µg/mL); MIC [15]: 0.39 µM (≈ 0.643 µg/mL); MIC-fold improvement vs. vancomycin [15]: 2; IC50 [16]: ≥ 250 µM

From article PMC6001238, “Iterative Chemical Engineering of Vancomycin Leads to Novel Vancomycin Analogs With a High in Vitro Therapeutic Index” (Frontiers in Microbiology, 2018)
